Reference: ChEMBL document CHEMBL6177931, “Exploring diverse frontiers: Advancements of bioactive 4-aminoquinoline-based molecular hybrids in targeted therapeutics and beyond” (Eur J Med Chem, 2024)
≈ marks a conversion by molar mass, not a printed value.

Experiments:
MDA-MB-231 [1] = assay: Growth inhibition of human MDA-MB-231 cells incubated for 48 hrs by SRB assay; type: functional
MDA-MB-468 = assay: Growth inhibition of human MDA-MB-468 cells incubated for 48 hrs by SRB assay; type: functional
MCF7 [2] = assay: Growth inhibition of human MCF7 cells incubated for 48 hrs by SRB assay; type: functional
[3] = Growth inhibition of human 184B5 cells incubated for 48 hrs by SRB assay; type: toxicity, cell-based
[4] = Growth inhibition of human MCF-10A cells incubated for 48 hrs by SRB assay; type: toxicity, cell-based
A549 = assay: Cytotoxicity against human A549 cells incubated for 24 hrs by MTT assay; type: functional, cell-based; settings: A549, 24 h
DU-145 = assay: Cytotoxicity against human DU-145 cells; type: functional, cell-based
MCF7 [5] = assay: Cytotoxicity against human MCF7 cells; type: functional, cell-based
Beta-secretase 1 = Beta-secretase 1 (Homo sapiens, UniProt P56817); assay: Inhibition of BACE1 (unknown origin) by FRET assay
Sequence of Beta-secretase 1 (P56817 whole entry): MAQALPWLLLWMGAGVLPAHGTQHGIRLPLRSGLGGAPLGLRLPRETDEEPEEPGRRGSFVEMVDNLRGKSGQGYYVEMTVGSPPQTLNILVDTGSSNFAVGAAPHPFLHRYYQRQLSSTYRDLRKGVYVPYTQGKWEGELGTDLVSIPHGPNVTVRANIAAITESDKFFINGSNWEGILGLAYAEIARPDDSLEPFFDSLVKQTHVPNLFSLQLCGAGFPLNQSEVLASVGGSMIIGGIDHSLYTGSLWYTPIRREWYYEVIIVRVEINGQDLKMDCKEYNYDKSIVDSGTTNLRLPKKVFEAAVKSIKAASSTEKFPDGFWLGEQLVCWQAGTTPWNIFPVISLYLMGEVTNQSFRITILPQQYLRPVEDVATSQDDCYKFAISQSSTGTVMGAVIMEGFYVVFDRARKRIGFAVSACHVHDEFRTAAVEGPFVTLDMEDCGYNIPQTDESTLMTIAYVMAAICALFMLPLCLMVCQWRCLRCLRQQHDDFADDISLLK

Acetylcholinesterase = Acetylcholinesterase (Electrophorus electricus, UniProt O42275); assay: Inhibition of electric eel AChE using […] as substrate measured within 2 mins
Sequence of Acetylcholinesterase (O42275 whole entry): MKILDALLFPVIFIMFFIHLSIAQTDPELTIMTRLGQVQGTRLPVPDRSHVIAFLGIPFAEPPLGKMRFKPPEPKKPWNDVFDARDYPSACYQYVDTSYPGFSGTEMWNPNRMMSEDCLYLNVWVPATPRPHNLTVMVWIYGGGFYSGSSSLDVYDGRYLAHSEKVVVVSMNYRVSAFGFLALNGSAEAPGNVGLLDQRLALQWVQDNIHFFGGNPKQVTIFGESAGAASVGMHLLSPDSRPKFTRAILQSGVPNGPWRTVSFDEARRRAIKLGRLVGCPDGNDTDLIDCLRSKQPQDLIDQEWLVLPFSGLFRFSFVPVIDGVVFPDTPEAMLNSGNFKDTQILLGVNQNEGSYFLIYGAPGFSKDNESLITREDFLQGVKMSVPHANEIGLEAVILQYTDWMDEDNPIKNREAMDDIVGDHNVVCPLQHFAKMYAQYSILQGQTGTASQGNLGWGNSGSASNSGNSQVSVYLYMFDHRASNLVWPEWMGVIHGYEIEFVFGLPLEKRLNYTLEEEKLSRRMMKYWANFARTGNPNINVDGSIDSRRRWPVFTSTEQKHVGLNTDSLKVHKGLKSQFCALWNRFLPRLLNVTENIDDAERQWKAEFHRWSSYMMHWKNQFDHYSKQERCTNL

Cholinesterase = Cholinesterase (Equus caballus, UniProt P81908); assay: Inhibition of equine serum BChE using […] as substrate measured within 2 mins
Sequence of Cholinesterase (P81908 whole entry): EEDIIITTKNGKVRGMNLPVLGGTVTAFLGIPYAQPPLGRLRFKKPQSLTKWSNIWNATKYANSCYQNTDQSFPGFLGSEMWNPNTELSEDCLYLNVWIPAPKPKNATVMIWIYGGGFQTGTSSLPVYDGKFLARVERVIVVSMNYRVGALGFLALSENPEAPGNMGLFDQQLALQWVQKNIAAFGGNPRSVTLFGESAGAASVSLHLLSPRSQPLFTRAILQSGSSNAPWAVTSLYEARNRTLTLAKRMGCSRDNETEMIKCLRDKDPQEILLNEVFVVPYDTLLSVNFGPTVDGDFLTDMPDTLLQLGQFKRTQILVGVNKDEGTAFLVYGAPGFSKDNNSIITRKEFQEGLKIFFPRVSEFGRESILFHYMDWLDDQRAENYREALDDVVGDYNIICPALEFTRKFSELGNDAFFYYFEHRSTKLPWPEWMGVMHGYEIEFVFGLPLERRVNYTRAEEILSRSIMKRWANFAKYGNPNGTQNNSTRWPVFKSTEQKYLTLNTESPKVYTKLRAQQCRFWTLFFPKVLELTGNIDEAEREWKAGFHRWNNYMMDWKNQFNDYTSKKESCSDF

[6] = test system: Mycobacterium tuberculosis; assay: Antitubercular activity against Mycobacterium tuberculosis H37Rv assessed as inhibition of visible bacterial growth incubated for 7 days by broth microdilution method; type: functional; settings: 168 h, time 7 day
HepG2 [7] = assay: Cytotoxicity against human HepG2 cells assessed as cell viability incubated for 24 hrs by MTT assay relative to control; type: functional
MCF7 [8] = assay: Anticancer activity against human MCF7 cells; type: functional, cell-based
HeLa = assay: Anticancer activity against human HeLa cells; type: functional, cell-based
Candida albicans = assay: Antifungal activity against Candida albicans incubated for 48 to 72 hrs by broth microdilution method; type: functional; settings: time 48-72 hrs
Aspergillus niger = assay: Antifungal activity against Aspergillus niger incubated for 48 to 72 hrs by broth microdilution method; type: functional; settings: time 48-72 hrs
Aspergillus fumigatus = assay: Antifungal activity against Aspergillus fumigatus incubated for 48 to 72 hrs by broth microdilution method; type: functional; settings: time 48-72 hrs
MDA-MB-231 [9] = assay: Anticancer activity against human MDA-MB-231 cells; type: functional, cell-based
Leishmania amazonensis [10] = assay: Antileishmanial activity against Leishmania amazonensis promastigotes infected in mouse macrophages assessed as inhibition of parasite growth incubated for 72 hrs by giemsa staining based analysis; type: functional, organism-based; settings: Macrophage
Leishmania amazonensis [11] = assay: Antileishmanial activity against Leishmania amazonensis amastigotes infected in mouse macrophages assessed as inhibition of parasite growth incubated for 72 hrs by giemsa staining based analysis; type: functional, organism-based; settings: Macrophage
[12] = Selectivity index, ratio of CC50 for cytotoxicity against mouse macrophage to IC50 for antileishmanial activity against Leishmania amazonensis amastigotes infected in mouse macrophages assessed as inhibition of parasite growth; type: toxicity, cell-based; settings: read-out: Ratio CC50/IC50
Plasmodium falciparum = assay: Antiplasmodial activity against chloroquine sensitive Plasmodium falciparum NF54 incubated for 48 hrs by lactate dehydrogenase assay; type: functional, organism-based; settings: NF54, Erythrocyte
HepG2 [13] = assay: Anticancer activity against human HepG2 cells incubated for 48 hrs by MTT assay; type: functional, cell-based; settings: HepG2, 48 h
MGC-803 [14] = assay: Antiproliferative activity against human MGC-803 cells incubated for 48 hrs by MTT assay; type: functional, cell-based; settings: MGC-803, 48 h
T-24 = assay: Antiproliferative activity against human T24 cells incubated for 48 hrs by MTT assay; type: functional, cell-based; settings: T-24, 48 h
NCI-H460 = assay: Antiproliferative activity against human NCI-H460 cells incubated for 48 hrs by MTT assay; type: functional, cell-based; settings: NCI-H460, 48 h
L02 = assay: Antiproliferative activity against human HL7702 cells incubated for 48 hrs by MTT assay; type: functional, cell-based; settings: L02, 48 h
MGC-803 [15] = assay: Antitumor activity against human MGC-803 cells xenografted in male BALB/c nude mouse assessed as suppression of tumor growth at 12 mg/kg, ip administered per 2 days relative to control; type: functional
[16] = Selectivity index, ratio of IC50 for cytotoxicity against African green monkey Vero cells to IC50 for antiplasmodial activity against D-sorbitol synchronized chloroquine-resistant Plasmodium falciparum W2; type: toxicity, cell-based; settings: read-out: Ratio IC50

O=[N+]([O-])c1ccc(S(=O)(=O)N2CCN(c3ccnc4cc(Cl)ccc34)CC2)c([N+](=O)[O-])c1
GI50 (MDA-MB-231 [1]): 3.4 µM
GI50 (MDA-MB-468): 0.7 µM
GI50 (MCF7 [2]): 2.3 µM
GI50 at 48 h [3]: 9 µM
GI50 at 48 h [4]: 12.3 µM

Cc1cccc2c(Nc3cccc4ncccc34)cc(Cl)nc12
IC50 (A549): 29.4 µM

CC1(C)CC[C@]2(C(=O)O)CC[C@]3(C)C(=CC[C@@H]4[C@@]5(C)CC[C@H](O)C(C)(C)[C@@H]5CC[C@]43C)[C@@H]2C1 [OLEANOLIC_ACID]
IC50 (DU-145): > 200 µM
IC50 (MCF7 [5]): > 200 µM

Nc1c2c(nc3c1C(c1cccc([N+](=O)[O-])c1)C1=C(O3)C(=O)c3ccccc3C1=O)CCCC2 (stereo not given)
IC50 (Beta-secretase 1): 19.6 µM
IC50 (Acetylcholinesterase): 0.86 µM
IC50 (Cholinesterase): 6.03 µM

CC(CNc1ccnc2cc(Cl)ccc12)NC(=O)Nc1nc2ccc(C(F)(F)F)cc2s1 (stereo not given)
MIC [6]: 0.968 µM (≈ 0.465 µg/mL)
Activity (HepG2 [7]): 100%

C[C@H]1[C@H](C)CC[C@]2(C(=O)OCCNc3ccnc4cc(Cl)ccc34)CC[C@]3(C)C(=CC[C@@H]4[C@@]5(C)CC[C@H](O)C(C)(C)[C@@H]5CC[C@]43C)[C@H]12
IC50 (MCF7 [8]): 48.2 µg/mL (≈ 72.8 µM)
IC50 (HeLa): 105 µg/mL (≈ 158 µM)

NCCCNc1nc(NCCCN)nc(NC(=S)NNc2ccnc3cc(Cl)ccc23)n1
MIC (Candida albicans): 8 µg/mL (≈ 16.8 µM)
MIC (Aspergillus niger): 8 µg/mL (≈ 16.8 µM)
MIC (Aspergillus fumigatus): 8 µg/mL (≈ 16.8 µM)

C[C@H]1[C@H](C)CC[C@]2(C(=O)OCCOCCNc3ccnc4cc(Cl)ccc34)CC[C@]3(C)C(=CC[C@@H]4[C@@]5(C)CC[C@H](O)C(C)(C)[C@@H]5CC[C@]43C)[C@H]12
IC50 (MDA-MB-231 [9]): 85.6 µg/mL (≈ 121 µM)

CCCCCCCCCCn1cc(CNCCNc2ccnc3cc(Cl)ccc23)nn1
IC50 (Leishmania amazonensis [10]): 5.7 µM
IC50 (Leishmania amazonensis [11]): 1.1 µM
selectivity ratio [12]: 16

O=C(/C=C/c1ccc(Cl)cc1)c1ccc(S(=O)(=O)NCCCNc2ccnc3cc(Cl)ccc23)cc1
IC50 (Plasmodium falciparum): 0.1 µM

CN(C)CCCNc1c(-c2nc3ccccc3s2)cnc2ccccc12
IC50 (HepG2 [13]): 4.88 µM
IC50 (MGC-803 [14]): 2.2 µM
IC50 (T-24): 3.17 µM
IC50 (NCI-H460): 3.22 µM
IC50 (L02): 10.9 µM
Activity (MGC-803 [15]): 42.4%

O=C1c2ccc(N3CCN(CCO)CC3)cc2C(=O)N1CCCNc1ccnc2cc(Cl)ccc12
selectivity ratio [16]: > 4200
